Data reported in patent US20080199520A1, “S-Adenosyl-L-Methionine for Regulating Behavioral Disorders in Pets” (VIRBAC, priority 2005, published 2008).
Where two headings read alike, the source gives them in different places.

Columns and labels:
[1] = system: old dogs with behavioral disorders; assay: Randomized double-blind placebo-controlled study on reduced mental capacity of old dogs (Example 4); type: in vivo
Protocol: These behavioral disorders manifested themselves as follows: disorientation, decrease in activity, decrease in social interactions, changes in activity-sleep cycle, lack of cleanliness, anxiety.
The dogs were randomly assigned to one of two treatment groups: SAMe or placebo. […]
The dogs were examined by an investigator at the start of the experiment and then at 30 days and 60 days.
The examinations looked at the various behavioral disorders of the animals, which were evaluated on a scale of 0 to 3 according to their intensity, and all the scores were added together to give a “standardized geriatric behavior score” reflecting the severity of the problems observed.

[2] = system: old cats with cognitive disorders
Protocol: A study was conducted to show the effects of S-adenosyl-L-methionine on age-related behavioral disorders in cats.
SAMe was administered in the form of tablets containing 90 mg of an S-adenosyl-L-methionine salt (the 1,4-butanedisulfonate).
The tablets were given once a day for a period of 3 consecutive months to comply with the following doses: • Mean dose: 18 (±3.4) mg/kg/d; minimum dose: 12.9 mg/kg/d; maximum dose: 22.5 mg/kg/d.
The blood parameters were analyzed by the veterinarian every month. The owners were also asked to give their opinion on the changes observed in the behavior of their pets.

[3] = system: old dogs presenting behavioral disorders associated with CDS; assay: Study of SAMe in old dogs presenting behavioral disorders associated with CDS (Example 1); type: in vivo; conditions: for dogs showing an improvement in activity level (owners) / mean activity level of the animals as observed by a veterinarian: at least 2.5 mg SAMe per kg per day
Protocol: A study was conducted to show the efficacy of S-adenosyl-L-methionine in old dogs presenting behavioral disorders associated with CDS.
S-adenosyl-L-methionine was administered in the form of tablets containing 10, 50 or 100 mg of SAMe.
15 dogs more than 7 years old were selected with no restrictions on breed, sex or weight. All the dogs presented well-established cognitive disorders associated with CDS (cleanliness problems, disorders of activity-sleep cycle, decrease in activity) which had been observed by their owners and by veterinarians.
Dogs presenting diseases requiring medical treatment were excluded from the study, as were dogs which had been treated with psychotropic drugs in the month preceding the study. Also, to avoid biases in the observations, heart, kidney and liver treatments and psychoactive drugs were not permitted during the study.
During the study the dogs received at least the equivalent of 2.5 mg of SAMe per kg of body weight per day in a single daily administration over a period of 4 months.
The dogs were examined by a veterinarian at the start of the experiment and then every month. The blood parameters were analyzed at each veterinary examination.
Experiment number 1: Measurement of the activity level of the dogs.
Experiment number 2: Measurement of the effect on the sleeping time of the dogs.
Experiment number 3: Evaluation of the effect on the anxiety of the dogs.

[4] = system: dogs presenting signs of fear; assay: Effect of the nutritional supplement on behavior and physical signs associated with fear in dogs (Example 2); type: in vivo; conditions: 7.5 mg SAMe/kg/day oral for one month, then 2.5 mg/kg/day for two months; sum of 6 parameter scores (FIG. 4)
Protocol: Another study was conducted to show the effect of administering to dogs a nutritional supplement based on S-adenosyl-L-methionine on the behavior and physical signs associated with fear.
The nutritional supplement used in this test consisted of tablets containing 10, 50 or 100 mg of SAMe. It was administered to the animals at a loading dose of 7.5 mg of SAMe per kg of body weight per day in a single daily oral administration for one month, and then at a maintenance dose of 2.5 mg of SAMe per kg of body weight per day in a single daily oral administration for the next two months.
15 dogs aged between 6 months and 15 years are selected with no restrictions on breed, sex or weight. In the two months preceding inclusion in the study, all the dogs presented signs of fear associated either with inhibited behavior or, conversely, with exaggerated responses. This type of problem had to have been identified in the dog for more than two months. The “overall fear score” (sum of the individual scores for the various parameters monitored) recorded at the start of the experiment had to be greater than 7, the parameters observed being as follows: • Pupil dilation. Score: 0=normal, 1=increased, 2=complete. • Trembling. Score: 0=none, 1=slight, 2=pronounced. • Exploration. […]

[5] = after two months of treatment, tosylate salt, 18.5 mg/kg/d
[6] = response to the treatment at D60, n = 17, tosylate salt, 18.5 mg/kg/d
[7] = 3 months, 1,4-butanedisulfonate salt, mean 18 mg/kg/d (FIG. 6)

C[S@@+](CC[C@H](N)C(=O)O)C[C@H]1O[C@@H](n2cnc3c(N)ncnc32)[C@H](O)[C@@H]1O [SAMe, 5′-[[3S-amino-3-carboxypropyl]methyl-(S)-sulfonio]-5′-deoxyadenosine]
average improvement in terms of activity [1, 5]: 57.1% | average improvement in terms of learning behavior, more particularly cleanliness [1, 5]: 57.1% | average improvement in terms of reactivity [1, 5]: 59.5% | owners' impression of their animals under treatment ([1]; end of the study, majority of the owners): more active and reactive | % of dogs, Good response [1, 6]: 41.2% | % of dogs, No response [1, 6]: 35.3% | % of dogs, Poor response [1, 6]: 23.5% | No. of dogs, Good response [1, 6]: 7 | No. of dogs, No response [1, 6]: 6 | No. of dogs, Poor response [1, 6]: 4 | reduction of the standardized geriatric behavior score ([1]; tosylate salt tablets once a day, average 18.5 mg/kg/d, versus placebo over the study period (FIG. 11)): more significant with SAMe than with placebo | cases with improved elimination behavior [2, 7]: 40% | cats with improved elimination behavior (number) [2, 7]: 2 out of 5 | cats exhibiting ambulation or vocalization periods ([2]; 15 days after the start of the experiment (70% at the start)): 30% | play activity of the cats ([2]; after one month (FIG. 8)): promising net effect | exploratory behavior of the cats ([2]; as from 15 days of treatment (FIG. 7)): perceptible activating effect | cats exhibiting ambulation or vocalization periods ([2]; as from the second month (70% at the start)): no cat | cats with a positive result on play activity ([2]; at 2 months (FIG. 8)): 7 out of 10 | interactions/recognition (owners, other animals) ([2]; cats which initially presented an interaction deficit (FIG. 9)): responded rather well | interactions/recognition (owners, other animals) ([2]; cats which manifested hyperattachment (FIG. 9)): more variable | periods of waking with a start or nightmares ([2]; during the 3-month study, 1,4-butanedisulfonate salt, mean 18 mg/kg/d): No cat | efficacy as considered by the owners ([2]; end of the study (3 months)): very good | cats with a return to a normal day-night cycle ([2]; in one month, 1,4-butanedisulfonate salt tablets, mean dose 18 mg/kg/d once a day (FIG. 5)): 7 out of 10 | cats in which aggressiveness or irritability was eliminated (number) ([2]; in three months (FIG. 10)): 4 out of 5 | manifestations of aggressiveness or irritability eliminated ([2]; in three months, encountered in 50% of the cats (FIG. 10)): 80% | side effects ([2]; in vivo): without causing side effects | dogs showing an improvement in activity level (owners) ([3]; after one month): more than 70% | mean activity level of the animals as observed by a veterinarian ([3]; after one month, tablets, single daily administration, score -1 reduced, 0 unchanged, 1 increased (FIG. 1)): increased significantly | mean activity level of the animals as observed by a veterinarian ([3]; after the first month, up to 4 months): remained above the animals' normal activity | sleeping time of the animals ([3]; daily for 4 months, variations decreased considerably after two months (FIG. 2)): tended to normalize | efficacy as considered by the owners ([3]; end of the study (4 months)): very good | dogs showing an improvement in activity level (owners) ([3]; first two weeks of the treatment): 38% | anxiety of the animals ([3]; throughout the 4-month period, score 0 none to 3 permanent (FIG. 3)): decreased regularly | overall fear score [4]: decreases very substantially
